Literature values as cited in US10500182B2, “Compositions of ketogenic sources, micronutrients and phytochemicals for prophylaxis and mitigation of migraine headache” (priority 2018, dated 2019).

Key:
[1] = test system: migraine; conditions: oral and intravenous supplementation, migraineurs
[2] = test system: migraine; conditions: ten percent solution applied topically to the forehead and temples

| Compound | reduction of migraine frequency and severity [1] | migraine pain and nausea [2] |
| --- | --- | --- |
| [Mg+2] [magnesium, Magnesium] | more than 40% |  |
| CC1CCC(C(C)C)C(O)C1 (centres unmarked) [menthol] |  | effective at terminating migraine pain and easing nausea |
